# System: immortalized human sebaceous cell line SZ95
# Test: Inhibition of DNA synthesis (3[H]-thymidine incorporation) of SZ95 sebaceous cells
# Assay type: cell-based
# Details: 48 h incubation with inhibitor, then 6 h 3[H]-methyl-thymidine incorporation; dose-dependent (FIG. 3)
# Description: SZ95 cells were 48 h incubated with the above-mentioned inhibitors and subsequently the DNA synthesis was determined by the measurement of the ^ 3[H]-Thymidine incorporation as described in Reinhold et al. (Reinhold, D. et al.: Inhibitors of dipeptidyl peptidase IV induce secretion of transforming growth factor β1 in PWM-stimulated PBMNC and T-cells; Immunology, 1997, 91; 354-360).
# The cells were 48 h incubated with inhibitors in the above-mentioned concentrations. Subsequently ^3[H]-Methyl-thymidin was added to the culture medium. After 6 further hours the amount of ^3[H]-Thymidine incorporated in the DNA was measured.
row,SMILES,DNA synthesis of the immortalized human sebaceous cell line SZ95
1,N[C@@H](CCCCNC(=O)OCc1ccc([N+](=O)[O-])cc1)C(=O)N1CCSC1 [Lys[Z(NO2)]-thiazolidide],inhibited
2,CCCCC[C@H](CC(=O)NO)C(=O)N[C@H](C(=O)N1CCC[C@H]1CO)C(C)C [actinonin],inhibited

# From patent publication US7683034B2, “Use of enzyme inhibitors of aminopeptidase N and/or dipeptidylpeptidase IV” (IMTM GmbH, priority 2002, dated 2010)
